Source: patent publication US12037324B2, “Biarylmethyl heterocycles” (Université de Montréal, priority 2016, dated 2024)

What was measured:
[1] = biological target: T1, AGTR1 (Homo sapiens, UniProt P30556); assay: DiscoveRx β-arrestin2 recruitment assay (enzyme complementation, Pathunter CHO-K1 AGTR1 β-arrestin cell line); assay type: cell-based; conditions: DiscoveRx β-arrestin2 recruitment; for DiscoveRx β-arrestin2 Ymax (%): maximal response
T1 construct: host or cells: Pathunter CHO-K1 AGTR1 β-arrestin cell line (CHO-K1)
T1 sequence (P30556 1-359): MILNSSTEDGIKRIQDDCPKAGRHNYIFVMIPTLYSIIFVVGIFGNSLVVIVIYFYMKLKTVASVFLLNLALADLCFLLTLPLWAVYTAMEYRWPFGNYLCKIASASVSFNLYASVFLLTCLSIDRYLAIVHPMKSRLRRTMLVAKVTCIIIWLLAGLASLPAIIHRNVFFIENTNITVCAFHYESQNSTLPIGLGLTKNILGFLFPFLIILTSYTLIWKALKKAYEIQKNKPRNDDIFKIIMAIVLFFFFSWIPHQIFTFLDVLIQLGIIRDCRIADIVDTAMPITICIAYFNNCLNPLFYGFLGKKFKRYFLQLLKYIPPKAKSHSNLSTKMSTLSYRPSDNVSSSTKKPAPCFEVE
Outline: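 Chemiluminescent enzyme-complementation read-out of β-arrestin2 recruitment to AGTR1 in engineered CHO-K1 cells after 90 min compound exposure at 37° C. Values are 4-parameter logistic EC50s in agonist mode, IC50s in antagonist mode, with efficacy relative to the maximal All response.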

[2] = biological target: T1, AGTR1; assay: DiscoveRx IP1 accumulation assay (HTRF), agonist mode, Pathunter CHO-K1 AGTR1 β-arrestin cell line; assay type: cell-based; conditions: for EC50: read-out: IP-1 EC50
Outline: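 Agonist mode in CHO-K1 AGTR1 β-arrestin cells plated 14-16 h before; compounds at varying concentrations for 90 min at 37° C, IP1 accumulation read by HTRF (D2-conjugate and anti-IP1 cryptate, 20 min room temperature). EC50 from 4-parameter logistic fit; activity given as percentage of maximal AII effect.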

[3] = biological target: T2, hAT1R (Homo sapiens, UniProt P30556); assay: BRET β-arrestin2 biosensor assay, higher receptor expression (hAT1R 5 ng/well), HEK293 cells; assay type: cell-based; conditions: for EC50: High AT1R Expression
T2 sequence (P30556 1-359): T1 sequence (P30556 1-359)

[4] = biological target: T2, hAT1R; assay: cell-based; conditions: Low AT1R Expression; for EC50: read-out: BRET β-Arrestin2 Low AT1R Expression EC50
[5] = biological target: T2, hAT1R; assay: cell-based; conditions: agonist mode; for EC50: read-out: BRET P63 EC50

**Q.** For `CCc1nc2c(C)cc(C)nc2n1Cc1ccc(-c2cc(-c3cccc(OC)c3)ccc2-c2nn[nH]n2)cc1` [Example 20], which EC50 [1] is on record?
**A.** 4.9 nM

**Q.** What about the “DiscoveRx β-arrestin2 Ymax (%)” value [1] of the same compound?
**A.** 38.7%

**Q.** What about the “IP-1 Ymax (%)” value [2] of the same compound?
**A.** 9.9%

**Q.** And the EC50 [2]?
**A.** 12.8 nM

**Q.** And the “BRET β-Arrestin2 High AT1R Expression Ymax (%)” value [3]?
**A.** 85.5%

**Q.** And the EC50 [3]?
**A.** 4.3 nM

**Q.** And the “BRET β-Arrestin2 Low AT1R Expression Ymax (%)” value [4]?
**A.** 59.5%

**Q.** And the EC50 [4]?
**A.** 12.2 nM

**Q.** What about the “BRET P63 Ymax” value [5] of the same compound?
**A.** 12.0%

**Q.** What about the EC50 [5] of the same compound?
**A.** 10.8 nM

**Q.** Which results are given for `CCc1nc2c(C)cc(C)nc2n1Cc1ccc(-c2cc(-n3cccn3)ccc2-c2nn[nH]n2)cc1` [Example 25]?
**A.** EC50 [1]: 15.9 nM; DiscoveRx β-arrestin2 Ymax (%) [1]: 23.1%; IP-1 Ymax (%) [2]: 6.7%; EC50 [2]: 40.8 nM; BRET β-Arrestin2 High AT1R Expression Ymax (%) [3]: 74.5%; EC50 [3]: 19.8 nM; BRET β-Arrestin2 Low AT1R Expression Ymax (%) [4]: 10.1%; EC50 [4]: 32.9 nM; EC50 [5]: > 100000 nM

**Q.** How did the EC50 [1] turn out when `CCc1nc2c(C)cc(C)nc2n1Cc1ccc(-c2cc(-c3ccccn3)ccc2-c2nn[nH]n2)cc1` [Example 30, 2-Ethyl-5,7-dimethyl-3-((5′-(pyridin-2-yl)-2′-(2H-tetrazol-5-yl)-[1,1′-biphenyl]-4-yl)methyl)-3H-imidazo[4,5-b]pyridine] was run?
**A.** 4.9 nM

**Q.** And the “DiscoveRx β-arrestin2 Ymax (%)” value [1]?
**A.** 48.0%

**Q.** And the “IP-1 Ymax (%)” value [2]?
**A.** 12.3%

**Q.** And the EC50 [2]?
**A.** 15.9 nM

**Q.** And the “BRET β-Arrestin2 High AT1R Expression Ymax (%)” value [3]?
**A.** 87.5%

**Q.** What about the EC50 [3] of the same compound?
**A.** 5.6 nM

**Q.** What about the “BRET β-Arrestin2 Low AT1R Expression Ymax (%)” value [4] of the same compound?
**A.** 72.9%

**Q.** And the EC50 [4]?
**A.** 14.5 nM

**Q.** What about the “BRET P63 Ymax” value [5] of the same compound?
**A.** 23.5%

**Q.** And the EC50 [5]?
**A.** 19.1 nM

**Q.** What does the source list for `CCc1nc2c(C)cc(C)nc2n1Cc1ccc(-c2cc(-c3ccccc3)ccc2-c2noc(=O)[nH]2)cc1` [Example 32, 3-(4″-((2-ethyl-5,7-dimethyl-3H-imidazo[4,5-b]pyridin-3-yl)methyl)-[1,1′:3′,1″-terphenyl]-4′-yl)-1,2,4-oxadiazol-5(4H)-one]?
**A.** EC50 [1]: 34.3 nM; DiscoveRx β-arrestin2 Ymax (%) [1]: 86.1%; IP-1 Ymax (%) [2]: 10.8%; EC50 [2]: 38.4 nM; BRET β-Arrestin2 High AT1R Expression Ymax (%) [3]: 91.6%; EC50 [3]: 5.1 nM; BRET β-Arrestin2 Low AT1R Expression Ymax (%) [4]: 80.9%; EC50 [4]: 12.5 nM; BRET P63 Ymax [5]: 25.2%; EC50 [5]: 21.1 nM

**Q.** `CCCCC1=NC2(CCCC2)C(=O)N1Cc1ccc(-c2cc(-c3ccccc3)ccc2-c2nn[nH]n2)cc1` [Example 33] was tested. Which EC50 [1] did it give?
**A.** 9.7 nM

**Q.** What about the “DiscoveRx β-arrestin2 Ymax (%)” value [1] of the same compound?
**A.** 29.9%

**Q.** And the “IP-1 Ymax (%)” value [2]?
**A.** 3.3%

**Q.** And the EC50 [2]?
**A.** 80.8 nM

**Q.** And the “BRET β-Arrestin2 High AT1R Expression Ymax (%)” value [3]?
**A.** 83.0%

**Q.** And the EC50 [3]?
**A.** 16.5 nM

**Q.** What about the “BRET β-Arrestin2 Low AT1R Expression Ymax (%)” value [4] of the same compound?
**A.** 27.5%

**Q.** What about the EC50 [4] of the same compound?
**A.** 26.7 nM

**Q.** What about the EC50 [5] of the same compound?
**A.** > 10000 nM

**Q.** With `CCc1nc2c(C)cc(C)nc2n1Cc1ccc(-c2cc(-c3cc(F)cc(F)c3)ccc2-c2nn[nH]n2)cc1` [Example 53] as the compound, how does the EC50 [1] read?
**A.** 2.6 nM

**Q.** What about the “DiscoveRx β-arrestin2 Ymax (%)” value [1] of the same compound?
**A.** 39.4%

**Q.** And the “IP-1 Ymax (%)” value [2]?
**A.** 5.8%

**Q.** And the EC50 [2]?
**A.** 7.9 nM

**Q.** And the “BRET β-Arrestin2 High AT1R Expression Ymax (%)” value [3]?
**A.** 90.6%

**Q.** What about the EC50 [3] of the same compound?
**A.** 5.4 nM

**Q.** And the “BRET β-Arrestin2 Low AT1R Expression Ymax (%)” value [4]?
**A.** 61.8%

**Q.** What about the EC50 [4] of the same compound?
**A.** 14 nM

**Q.** What about the EC50 [5] of the same compound?
**A.** > 100000 nM

**Q.** For `CCc1nc2c(C)cc(C)nc2n1Cc1ccc(-c2cc(-c3nccs3)ccc2-c2nn[nH]n2)cc1` [Example 56], which EC50 [1] is on record?
**A.** 58.3 nM

**Q.** What about the “DiscoveRx β-arrestin2 Ymax (%)” value [1] of the same compound?
**A.** 20.8%

**Q.** What about the EC50 [2] of the same compound?
**A.** > 100000 nM

**Q.** What about the “BRET β-Arrestin2 High AT1R Expression Ymax (%)” value [3] of the same compound?
**A.** 63.0%

**Q.** What about the EC50 [3] of the same compound?
**A.** 48.9 nM

**Q.** What about the “BRET β-Arrestin2 Low AT1R Expression Ymax (%)” value [4] of the same compound?
**A.** 14.2%

**Q.** What about the EC50 [4] of the same compound?
**A.** 54 nM

**Q.** And the “BRET P63 Ymax” value [5]?
**A.** 4.0%

**Q.** And the EC50 [5]?
**A.** 42.6 nM

**Q.** Which results are given for `CCc1nc2c(C)cc(C)nc2n1Cc1ccc(-c2cc(-c3ccsn3)ccc2-c2nn[nH]n2)cc1` [Example 57]?
**A.** EC50 [1]: 16.6 nM; DiscoveRx β-arrestin2 Ymax (%) [1]: 26.3%; EC50 [2]: > 100000 nM; BRET β-Arrestin2 High AT1R Expression Ymax (%) [3]: 66.3%; EC50 [3]: 15.2 nM; BRET β-Arrestin2 Low AT1R Expression Ymax (%) [4]: 8.9%; EC50 [4]: 19.9 nM; BRET P63 Ymax [5]: 5.0%; EC50 [5]: 14.3 nM

**Q.** For `CCc1nc2c(C)cc(C)nc2n1Cc1ccc(-c2cc(-c3cccc(C)n3)ccc2-c2nn[nH]n2)cc1` [Example 59], which EC50 [1] is on record?
**A.** 12.5 nM

**Q.** And the “DiscoveRx β-arrestin2 Ymax (%)” value [1]?
**A.** 29.5%

**Q.** What about the “IP-1 Ymax (%)” value [2] of the same compound?
**A.** 10.4%

**Q.** And the EC50 [2]?
**A.** 21.9 nM

**Q.** And the “BRET β-Arrestin2 High AT1R Expression Ymax (%)” value [3]?
**A.** 52.1%

**Q.** What about the EC50 [3] of the same compound?
**A.** 14 nM

**Q.** What about the EC50 [4] of the same compound?
**A.** > 10000 nM

**Q.** What about the EC50 [5] of the same compound?
**A.** > 10000 nM
